This is an account of results in patent US11267811B2, “Small molecule inhibitors of galectin-3” (BRISTOL-MYERS SQUIBB COMPANY, priority 2017, dated 2022).

What is called IC50 is the concentration that inhibits the measured activity by half.

Sequence of His-tagged recombinant human Gal-3 (hGal-3) (P17931 whole entry): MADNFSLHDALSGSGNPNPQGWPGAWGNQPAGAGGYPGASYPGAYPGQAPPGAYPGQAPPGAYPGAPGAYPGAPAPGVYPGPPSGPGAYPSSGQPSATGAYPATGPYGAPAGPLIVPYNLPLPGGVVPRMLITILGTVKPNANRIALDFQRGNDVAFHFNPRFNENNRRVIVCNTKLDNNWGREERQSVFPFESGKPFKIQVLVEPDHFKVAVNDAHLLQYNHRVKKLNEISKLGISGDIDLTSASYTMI

One test concerns the target His-tagged recombinant human Gal-3 (hGal-3) (Homo sapiens (Human), UniProt P17931). Description: Gal-3 HTRF assay (His-tagged hGal-3 binding to B-ASF).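 Also: compounds preincubated 30 min with hGal-3, then 1 h with B-ASF, detection via terbium anti-His antibody and streptavidin d2. Control with B-ASF counts as full signal, omitting B-ASF as background.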 The settings on record: HTRF, hGal-3 15 nM, B-ASF 15 nM; read-out: hGal-3 IC50.
On to `OC[C@H]1O[C@@H](c2nncn2Cc2nc3ccccc3s2)[C@H](O)[C@@H](n2cc(-c3cc(F)c(F)c(F)c3)nn2)[C@H]1O` [Example 130], for which the half-inhibitory concentration (IC50) stood at 0.32 µM. On to `OC[C@H]1O[C@@H](c2nncn2-c2ccccc2)[C@H](O)[C@@H](n2cc(-c3cc(F)c(F)c(F)c3)nn2)[C@H]1O` [Example 73, (2R,3R,4R,5R,6S)-2-(hydroxymethyl)-6-(4-phenyl-4H-1,2,4-triazol-3-yl)-4-(4-(3,4,5-trifluorophenyl)-1H-1,2,3-triazol-1-yl)tetrahydro-2H-pyran-3,5-diol], for which the half-inhibitory concentration (IC50) was 0.21 µM. On the same count and under the same terms, with `Cc1nc2cccc(-n3cnnc3[C@@H]3O[C@H](CO)[C@H](O)[C@H](n4cc(-c5cc(F)c(F)c(F)c5)nn4)[C@H]3O)c2s1` [Example 139] the figure was 0.26 µM. Turning to `NC(=O)c1cccc(-n2ncnc2[C@H]2C[C@@H](n3cc(-c4cc(F)c(F)c(F)c4)nn3)[C@@H](O)[C@@H](CO)O2)c1` [Example 175], the IC50 came out at 0.65 µM. On the same count and under the same terms, with `CC(C)(C)c1cnnn1[C@@H]1O[C@H](CO)[C@H](O)[C@H](n2cc(-c3cc(F)c(F)c(F)c3)nn2)[C@H]1O` [Example 10] the figure was 0.366 µM; with `Cc1nc2ccc(-n3c(C)nnc3[C@@H]3O[C@H](CO)[C@H](O)[C@H](n4cc(-c5cc(F)c(F)c(F)c5)nn4)[C@H]3O)cc2s1` [Example 273, (2R,3R,4R,5R,6S)-2-(hydroxymethyl)-6-(5-methyl-4-(2-methylbenzo[d]thiazol-6-yl)-4H-1,2,4-triazol-3-yl)-4-(4-(3,4,5-trifluorophenyl)-1H-1,2,3-triazol-1-yl)tetrahydro-2H-pyran-3,5-diol], 0.04 µM. Regarding `OC[C@H]1O[C@@H](n2nncc2-c2ccccc2)C[C@@H](n2cc(-c3cc(F)c(F)c(F)c3)nn2)[C@H]1O` [Example 17], the half-maximal inhibitory concentration (IC50) came out at 0.902 µM. The same measure, in the same setting: with `OC[C@H]1O[C@@H](c2ncnn2-c2ccc(Cl)c(Cl)c2)[C@H](O)[C@@H](n2cc(-c3cc(F)c(F)c(F)c3)nn2)[C@H]1O` [Example 21] the figure was 0.079 µM. Still for that read-out and setting: then `Cc1nc2ccc(-n3nc(C(C)(C)O)nc3[C@H]3C[C@@H](n4cc(-c5cc(F)c(F)c(F)c5)nn4)[C@@H](O)[C@@H](CO)O3)cc2s1` [Example 270, (2R,3R,4R,6R)-2-(hydroxymethyl)-6-(3-(2-hydroxypropan-2-yl)-1-(2-methylbenzo[d]thiazol-6-yl)-1H-1,2,4-triazol-5-yl)-4-(4-(3,4,5-trifluorophenyl)-1H-1,2,3-triazol-1-yl)tetrahydro-2H-pyran-3-ol], with 0.17 µM; and `OC[C@H]1O[C@@H](c2ncnn2-c2ccccc2F)[C@H](O)[C@@H](n2cc(-c3cc(F)c(F)c(F)c3)nn2)[C@H]1O` [Example 40], with 1.02 µM; and `OC[C@H]1O[C@@H](c2ncnn2-c2ccc3ncsc3c2)C[C@@H](n2cc(-c3cc(F)c(F)c(F)c3)nn2)[C@H]1O` [Example 181], with 0.04 µM.

`OC[C@H]1O[C@@H](c2nncn2-c2cccc(C(F)(F)F)c2)[C@H](O)[C@@H](n2cc(-c3cc(F)c(F)c(F)c3)nn2)[C@H]1O` [Example 80]: the IC50 was 0.33 µM. As to `OC[C@H]1O[C@@H](c2ncnn2-c2cc(F)cc(F)c2)[C@H](O)[C@@H](n2cc(-c3cc(F)c(F)c(F)c3)nn2)[C@H]1O` [Example 37], the 50% inhibitory concentration (IC50) is 0.21 µM. Same read-out and setting: then `Cc1nc2ccc(-n3cnnc3[C@@H]3O[C@H](CO)[C@H](O)[C@H](n4cc(-c5ccc(Br)c(F)c5)nn4)[C@H]3OCC(F)F)cc2s1` [Example 322, (2R,3R,4S,5R,6S)-4-(4-(4-bromo-3-fluorophenyl)-1H-1,2,3-triazol-1-yl)-5-(2,2-difluoroethoxy)-2-(hydroxymethyl)-6-(4-(2-methylbenzo[d]thiazol-6-yl)-4H-1,2,4-triazol-3-yl)tetrahydro-2H-pyran-3-ol], with 0.072 µM; and `Cc1nc2ccc(-n3ncnc3[C@@H]3O[C@H](CO)[C@H](O)[C@H](n4cc(C(=O)NC5CCCC5)nn4)[C@H]3O)cc2s1` [Example 197], with 1.32 µM. Still for that read-out and setting: with `Cc1nc2ccc(-n3nc(C(=O)O)nc3[C@H]3C[C@@H](n4cc(-c5cccc(F)c5)nn4)[C@@H](O)[C@@H](CO)O3)cc2s1` [Example 269, 5-((2R,4R,5R,6R)-4-(4-(3-fluorophenyl)-1H-1,2,3-triazol-1-yl)-5-hydroxy-6-(hydroxymethyl)tetrahydro-2H-pyran-2-yl)-1-(2-methylbenzo[d]thiazol-6-yl)-1H-1,2,4-triazole-3-carboxylic acid] the figure was 0.33 µM. For the molecule `OC[C@H]1O[C@@H](n2ccc3cc(Cl)ccc32)[C@H](O)[C@@H](n2cc(-c3cc(F)c(F)c(F)c3)nn2)[C@H]1O` [Example 291, (2R,3R,4S,5R,6R)-2-(5-chloro-1H-indol-1-yl)-6-(hydroxymethyl)-4-(4-(3,4,5-trifluorophenyl)-1H-1,2,3-triazol-1-yl)tetrahydro-2H-pyran-3,5-diol], the IC50 was 10 µM. Still for that read-out and setting: then `COc1cccc(-n2cnnc2[C@@H]2O[C@H](CO)[C@H](O)[C@H](n3cc(-c4cc(F)c(F)c(F)c4)nn3)[C@H]2O)n1` [Example 134], with 0.57 µM. On the same count and under the same terms, with `Cc1nc2ccc(-n3ncnc3[C@@H]3O[C@H](CO)[C@H](O)[C@H](n4cc(-c5cc(F)c(F)c(F)c5)nn4)[C@H]3O)cc2s1` [Example 45] the figure was 0.06 µM; with `Cc1nc([C@H]2C[C@@H](n3cc(-c4cc(F)c(F)c(F)c4)nn3)[C@@H](O)[C@@H](CO)O2)n(-c2ccc3nc(C)sc3c2)n1` [Example 187], 0.11 µM; with `OC[C@H]1O[C@@H](c2nncn2-c2ccc(Cl)c(C(F)(F)F)c2)[C@H](O)[C@@H](n2cc(-c3cc(F)c(F)c(F)c3)nn2)[C@H]1O` [Example 87], 0.1 µM. The same measure, in the same setting: with `OC[C@H]1O[C@@H](c2nncn2-c2ccc(-n3cccc3)cc2)[C@H](O)[C@@H](n2cc(-c3cc(F)c(F)c(F)c3)nn2)[C@H]1O` [Example 109] the figure was 0.52 µM; with `Cc1nc2ccc(-n3cnnc3[C@@H]3O[C@H](CO)[C@H](O)[C@H](n4cc(-c5cc(F)c(Br)c(F)c5)nn4)[C@H]3OCC(F)F)cc2s1` [Example 321, (2R,3R,4S,5R,6S)-4-(4-(4-bromo-3,5-difluorophenyl)-1H-1,2,3-triazol-1-yl)-5-(2,2-difluoroethoxy)-2-(hydroxymethyl)-6-(4-(2-methylbenzo[d]thiazol-6-yl)-4H-1,2,4-triazol-3-yl)tetrahydro-2H-pyran-3-ol], 0.053 µM. In the case of `Cc1nc2ccc(-n3ncnc3[C@@H]3O[C@H](CO)[C@H](O)[C@H](n4cc(C(=O)N(C)C)nn4)[C@H]3O)cc2s1` [Example 196], the IC50 was 5.65 µM. Take `OC[C@H]1O[C@@H](c2ncnn2-c2ccccc2)[C@H](O)[C@@H](n2cc(-c3cc(F)c(F)c(F)c3)nn2)[C@H]1O` [Example 20]: the half-inhibitory concentration (IC50) stood at 0.708 µM. Regarding `O=C(O)c1ccc(-n2ncnc2[C@@H]2O[C@H](CO)[C@H](O)[C@H](n3cc(-c4cc(F)c(F)c(F)c4)nn3)[C@H]2O)cc1` [Example 32], the IC50 amounted to 0.59 µM.

Staying with this test, now noted: read-out: hGal3 IC50.
As for `Cc1nc2ccc(-n3ncnc3[C@@H]3O[C@H](CO)[C@H](O)[C@H](n4cc(-c5cc(F)cc(F)c5)nn4)[C@H]3O)cc2s1` [Example 215], the IC50 was 0.14 µM.

Consider `Cc1nc2ccc(-n3c([C@@H]4O[C@H](CO)[C@H](O)[C@H](n5cc(-c6cc(F)c(F)c(F)c6)nn5)[C@H]4O)nnc3C(F)(F)F)cc2s1` [Example 274], for which the IC50 is 0.05 µM. Same read-out and setting: then `COc1ccc(Cl)cc1-n1nc(C)nc1[C@@H]1O[C@H](CO)[C@H](O)[C@H](n2cc(-c3ccc(Cl)c(F)c3)nn2)[C@H]1O` [Example 251], with 0.08 µM; and `COC(=O)Nc1ccc(-c2cn([C@H]3[C@@H](O)[C@@H](CO)O[C@@H](c4ncnn4-c4ccc5nc(C)sc5c4)[C@@H]3O)nn2)cc1F` [Example 205], with 1.11 µM. Turning to `Cc1nc([C@@H]2O[C@H](CO)[C@H](O)[C@H](n3cc(-c4ccc(Cl)c(F)c4)nn3)[C@H]2O)n(-c2ccccc2)n1` [Example 247], the IC50 turned out to be 0.45 µM. On to `Cc1nc2ccc(-n3ncnc3[C@@H]3O[C@H](CO)[C@H](O)[C@H](n4cc(-c5ccc(Cl)cc5)nn4)[C@H]3O)cc2s1` [Example 237], for which the 50% inhibitory concentration (IC50) was determined as 0.21 µM. The same measure, in the same setting: with `Cc1nc2ccc(-n3ncnc3[C@@H]3O[C@H](CO)[C@H](O)[C@H](n4cc(-c5cc(F)c(Br)c(F)c5)nn4)[C@H]3O)cc2s1` [Example 226] the figure was 0.07 µM; with `Cc1nc([C@@H]2O[C@H](CO)[C@H](O)[C@H](n3cc(-c4ccc(Cl)c(F)c4)nn3)[C@H]2O)n(-c2cc(Cl)ccc2Cl)n1` [Example 246], 0.03 µM; with `Cc1nc2ccc(-n3ncnc3[C@@H]3O[C@H](CO)[C@H](O)[C@H](n4cc(-c5ccc(C#N)c(F)c5)nn4)[C@H]3O)cc2s1` [Example 230], 0.45 µM.

Staying with this test, now noted: read-out: hGal IC50.
For `Cc1nc([C@@H]2O[C@H](CO)[C@H](O)[C@H](n3cc(-c4cc(F)c(Cl)c(F)c4)nn3)[C@H]2O)n(-c2cc(Cl)cnc2C(F)(F)F)n1` [Example A10], the half-inhibitory concentration (IC50) was 0.029 µM. As to `Cc1nc([C@@H]2O[C@H](CO)[C@H](O)[C@H](n3cc(-c4cc(F)c(Cl)c(F)c4)nn3)[C@H]2O)n(-c2ccc3nc(C)sc3c2)n1` [Example A36], the IC50 worked out at 0.053 µM. As to `Cc1nc([C@@H]2O[C@H](CO)[C@H](O)[C@H](n3cc(-c4cc(F)c(Cl)c(F)c4)nn3)[C@H]2O)n(-c2cc(Cl)cc3ccncc23)n1` [Example A37], the IC50 was found to be 0.051 µM. On the same count and under the same terms, then `Cc1nc([C@@H]2O[C@H](CO)[C@H](O)[C@H](n3cc(-c4ccc(Br)c(F)c4)nn3)[C@H]2O)n(-c2cc(Cl)ccc2C(F)F)n1` [Example A61], with 0.049 µM; and `Cc1nc([C@@H]2O[C@H](CO)[C@H](O)[C@H](n3cc(-c4cc(F)c(Br)c(F)c4)nn3)[C@H]2O)n(-c2ccc3nc(C)sc3c2)n1` [Example A32], with 0.041 µM; and `Cc1nc([C@@H]2O[C@H](CO)[C@H](O)[C@H](n3cc(-c4ccc(Br)c(F)c4)nn3)[C@H]2O)n(-c2cc(Cl)cc3ccncc23)n1` [Example A39], with 0.161 µM. The same measure, in the same setting: with `Cc1nc([C@@H]2O[C@H](CO)[C@H](O)[C@H](n3cc(-c4cc(F)c(Cl)c(F)c4)nn3)[C@H]2O)n(-c2cc(Cl)ccc2C(C)(C)C)n1` [Example A42] the figure was 0.011 µM.
